# System: CCRF-CEM
# Experiment: Compound was tested for cytotoxic activity in CCRF-CEM Human Leukemia cells by in vitro cytotoxicity assay
# Assay type: functional, cell-based
row,Compound,IC50 [ng/mL]
1,CN(CC1Cc2c(O)nc(N)nc2NC1=O)c1ccc(C(=O)NC(CCC(=O)O)C(=O)O)cc1 (stereo not given),> 20000
2,Nc1nc(O)c2c(n1)NC(=O)C(CNc1ccc(C(=O)NC(CCC(=O)O)C(=O)O)cc1)C2 (stereo not given),> 20000
3,Nc1nc(O)c2c(n1)NCC(CCc1ccc(C(=O)NC(CCC(=O)O)C(=O)O)cc1)C2 (stereo not given),7
4,Nc1nc(O)c2c(n1)NC(=O)C(CCc1ccc(C(=O)NC(CCC(=O)O)C(=O)O)cc1)C2 (stereo not given),> 20000
5,CN(Cc1cnc2nc(N)nc(N)c2n1)c1ccc(C(=O)N[C@@H](CCC(=O)O)C(=O)O)cc1 [METHOTREXATE],4
